Source: ChEMBL document CHEMBL1144945, “Development of progesterone receptor antagonists from 1,2-dihydrochromeno[3,4-f]quinoline agonist pharmacophore” (Bioorg Med Chem Lett, 2003)
The source made the active and inactive calls. The rule behind the calls is not given here.

Assays:
[1] = molecular target: T1, Glucocorticoid receptor (Homo sapiens) (UniProt P04150); experiment: Antagonist efficacy for glucocorticoid receptor; not active; type: functional
T1 sequence (whole entry): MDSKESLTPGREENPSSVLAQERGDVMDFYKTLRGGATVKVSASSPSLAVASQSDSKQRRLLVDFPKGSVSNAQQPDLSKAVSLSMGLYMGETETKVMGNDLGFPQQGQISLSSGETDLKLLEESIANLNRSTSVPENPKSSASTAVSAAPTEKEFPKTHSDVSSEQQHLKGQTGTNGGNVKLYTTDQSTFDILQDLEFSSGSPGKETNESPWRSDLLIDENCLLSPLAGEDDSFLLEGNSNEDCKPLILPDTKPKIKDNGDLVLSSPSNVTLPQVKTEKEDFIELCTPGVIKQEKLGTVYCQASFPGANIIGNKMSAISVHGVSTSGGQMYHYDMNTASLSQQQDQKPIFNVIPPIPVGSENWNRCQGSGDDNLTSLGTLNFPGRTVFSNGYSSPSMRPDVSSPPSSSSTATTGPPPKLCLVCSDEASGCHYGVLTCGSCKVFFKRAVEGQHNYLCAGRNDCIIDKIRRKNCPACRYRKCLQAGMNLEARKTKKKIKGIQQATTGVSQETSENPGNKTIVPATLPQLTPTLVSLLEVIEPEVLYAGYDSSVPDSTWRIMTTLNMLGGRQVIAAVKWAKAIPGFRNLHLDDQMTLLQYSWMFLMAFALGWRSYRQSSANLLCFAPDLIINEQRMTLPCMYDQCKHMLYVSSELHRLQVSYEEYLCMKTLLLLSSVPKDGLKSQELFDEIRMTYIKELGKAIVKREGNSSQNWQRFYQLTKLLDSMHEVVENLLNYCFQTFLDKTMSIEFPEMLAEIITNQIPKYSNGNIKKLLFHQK

[2] = molecular target: T2, Glucocorticoid receptor (Homo sapiens, UniProt P04150); experiment: Inhibition of antagonist activity towards glucocorticoid receptor; not active; type: functional
T2 sequence (P04150 whole entry): T1 sequence (whole entry)

[3] = molecular target: T2, Glucocorticoid receptor; experiment: Inhibition of antagonist activity towards glucocorticoid receptor; type: functional
[4] = molecular target: T3, Androgen receptor (Homo sapiens, UniProt P10275)
T3 sequence (P10275 whole entry): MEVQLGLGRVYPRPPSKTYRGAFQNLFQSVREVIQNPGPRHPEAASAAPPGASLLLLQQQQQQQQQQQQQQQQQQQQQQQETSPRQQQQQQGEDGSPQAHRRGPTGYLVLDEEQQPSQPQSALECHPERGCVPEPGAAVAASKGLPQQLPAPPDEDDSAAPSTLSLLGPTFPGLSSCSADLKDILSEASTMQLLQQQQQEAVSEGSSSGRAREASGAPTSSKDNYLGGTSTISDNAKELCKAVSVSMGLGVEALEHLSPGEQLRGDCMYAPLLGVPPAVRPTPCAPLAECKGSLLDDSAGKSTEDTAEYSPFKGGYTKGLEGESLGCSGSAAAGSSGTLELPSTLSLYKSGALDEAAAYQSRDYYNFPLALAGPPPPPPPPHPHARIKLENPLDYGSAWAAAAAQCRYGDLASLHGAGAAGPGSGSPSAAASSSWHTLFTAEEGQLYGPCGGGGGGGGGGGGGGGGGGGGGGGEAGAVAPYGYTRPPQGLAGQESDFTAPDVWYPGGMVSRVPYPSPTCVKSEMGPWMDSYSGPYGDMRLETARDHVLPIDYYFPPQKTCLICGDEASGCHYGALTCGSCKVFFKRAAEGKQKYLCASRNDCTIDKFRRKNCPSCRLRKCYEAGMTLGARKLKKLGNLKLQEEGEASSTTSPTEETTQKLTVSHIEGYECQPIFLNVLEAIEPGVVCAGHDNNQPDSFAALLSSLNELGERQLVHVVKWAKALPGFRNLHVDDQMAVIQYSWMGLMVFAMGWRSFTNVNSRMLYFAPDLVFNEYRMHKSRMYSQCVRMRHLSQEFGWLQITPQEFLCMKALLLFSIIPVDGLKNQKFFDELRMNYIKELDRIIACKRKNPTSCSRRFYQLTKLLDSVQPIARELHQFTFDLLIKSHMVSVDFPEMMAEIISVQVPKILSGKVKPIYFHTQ
Description: Inhibition of antagonist activity towards Androgen receptor

[5] = molecular target: T4, Progesterone receptor (Homo sapiens) (UniProt P06401); experiment: Antagonist efficacy for human progesterone in T47D human breast cancer cell; type: functional, cell-based
T4 sequence (whole entry): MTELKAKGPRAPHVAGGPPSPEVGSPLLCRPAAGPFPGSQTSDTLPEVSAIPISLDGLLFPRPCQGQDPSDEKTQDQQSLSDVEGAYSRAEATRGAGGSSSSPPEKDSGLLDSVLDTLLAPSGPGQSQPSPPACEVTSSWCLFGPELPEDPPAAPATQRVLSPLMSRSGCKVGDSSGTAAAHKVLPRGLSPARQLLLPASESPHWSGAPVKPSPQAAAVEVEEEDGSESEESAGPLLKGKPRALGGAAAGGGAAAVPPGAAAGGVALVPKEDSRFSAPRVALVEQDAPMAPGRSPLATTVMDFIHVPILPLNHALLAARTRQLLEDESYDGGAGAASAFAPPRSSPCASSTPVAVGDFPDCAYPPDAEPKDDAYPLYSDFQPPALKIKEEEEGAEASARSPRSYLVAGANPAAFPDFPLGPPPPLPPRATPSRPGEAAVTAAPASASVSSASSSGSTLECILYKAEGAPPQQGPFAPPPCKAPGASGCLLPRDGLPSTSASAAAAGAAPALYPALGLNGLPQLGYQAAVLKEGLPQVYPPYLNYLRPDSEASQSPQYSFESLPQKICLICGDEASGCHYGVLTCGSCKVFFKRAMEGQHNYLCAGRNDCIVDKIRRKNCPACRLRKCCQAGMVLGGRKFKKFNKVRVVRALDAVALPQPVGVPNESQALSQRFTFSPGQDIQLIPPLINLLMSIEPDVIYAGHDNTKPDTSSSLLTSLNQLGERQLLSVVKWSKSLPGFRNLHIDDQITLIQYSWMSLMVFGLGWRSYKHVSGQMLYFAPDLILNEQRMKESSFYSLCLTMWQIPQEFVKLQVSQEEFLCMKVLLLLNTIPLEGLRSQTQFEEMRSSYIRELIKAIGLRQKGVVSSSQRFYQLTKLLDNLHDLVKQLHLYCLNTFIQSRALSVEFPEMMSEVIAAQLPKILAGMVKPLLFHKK

[6] = molecular target: T5, Progesterone receptor (Homo sapiens, UniProt P06401); experiment: Effective concentration for human progesterone in T47D human breast cancer cell; type: cell-based, Cancer cell lines
T5 sequence (P06401 whole entry): T4 sequence (whole entry)

[7] = molecular target: T6, Androgen receptor (Homo sapiens) (UniProt P10275); experiment: Antagonist efficacy for human sndrogen receptor; type: functional
T6 sequence (whole entry): T3 sequence (P10275 whole entry)

[8] = molecular target: Estrogen receptor (Homo sapiens) (UniProt Q92731+P03372); experiment: Antagonist efficacy for estrogen (hER) receptor; Not active; type: functional
[9] = molecular target: T3, Androgen receptor; experiment: Inhibition of antagonist activity towards human Androgen receptor; type: functional
[10] = molecular target: T5, Progesterone receptor; experiment: Binding towards human progesterone receptor
[11] = molecular target: T4, Progesterone receptor (Homo sapiens); experiment: Agonist efficacy for human progesterone in T47D human breast cancer cell; type: functional, cell-based
[12] = molecular target: T2, Glucocorticoid receptor; experiment: Inhibition of antagonist activity towards glucocorticoid (hGR) receptor; type: functional
[13] = molecular target: T4, Progesterone receptor (Homo sapiens); experiment: Antagonist efficacy for human progesterone in CV-1 cells; type: functional, cell-based
[14] = molecular target: T5, Progesterone receptor; experiment: Inhibition of human progesterone in T47D human breast cancer cell; type: cell-based

Question: For `CC1CC(C)(C)Nc2ccc3c(c21)COc1c(F)cc(F)cc1-3` (configuration not stated), which Efficacy [1] is on record?
Answer: Its Efficacy is “inactive”.

Question: What about the IC50 [2] of the same compound?
Answer: The IC50 was “Not Active”.

Question: For `CC1=CC(C)(C)Nc2ccc3c(c21)COc1c(F)cc(Br)cc1-3`, which IC50 [3] is on record?
Answer: Its IC50 is 2170 nM.

Question: And the IC50 [4]?
Answer: The IC50 was 90 nM.

Question: Which results are given for `CC1CC(C)(C)Nc2ccc3c(c21)COc1ccc([N+](=O)[O-])cc1-3` (configuration not stated)?
Answer: IC50 [3]: 1870 nM; IC50 [4]: 63 nM

Question: For `CC1=CC(C)(C)Nc2ccc3c(c21)COc1c(F)cc(F)cc1-3`, which Efficacy [5] is on record?
Answer: The Efficacy was 52%.

Question: And the EC50 [6]?
Answer: Its EC50 is 244 nM.

Question: What about the Efficacy [7] of the same compound?
Answer: Its Efficacy is 87%.

Question: And the Efficacy [8]?
Answer: The Efficacy was “inactive”.

Question: And the IC50 [9]?
Answer: The IC50 was 644 nM.

Question: What about the Ki [10] of the same compound?
Answer: Its Ki is 13.5 nM.

Question: What about the Efficacy [11] of the same compound?
Answer: Its Efficacy is 42%.

Question: And the IC50 [12]?
Answer: The IC50 was 3030 nM.

Question: And the Efficacy [13]?
Answer: The Efficacy was 83%.

Question: What about the IC50 [14] of the same compound?
Answer: Its IC50 is 86 nM.

Question: `CC1=CC(C)(C)Nc2ccc3c(c21)COc1c(F)cc(Cl)cc1-3` was tested. Which Efficacy [7] did it give?
Answer: Its Efficacy is 79%.

Question: And the Efficacy [8]?
Answer: The Efficacy was “inactive”.

Question: And the IC50 [9]?
Answer: The IC50 was 428 nM.

Question: And the Ki [10]?
Answer: Its Ki is 5.6 nM.

Question: And the IC50 [12]?
Answer: The IC50 was 753 nM.

Question: And the Efficacy [13]?
Answer: The Efficacy was 74%.
